Assay [1] has as its target T1, SAP (Homo sapiens, UniProt P02743). Nature of the assay: Isothermal calorimetry of CPHPC with SAP. Particulars: read-out: affinity of binding, SAP and CPHPC. The text has this:
This phenomenon contrasts sharply with the behaviour in vivo of the closely related molecule, serum amyloid P component (SAP), the other member of the human pentraxin protein family. SAP shares with CRP the homopentameric structure consisting of 5 identical protomers non-covalently associated in a disc like configuration, with a single calcium-dependent ligand binding site on one face of each subunit. […] The handling of aggregated human SAP in vivo may thus differ markedly from that of aggregated CRP. […] Thus compounds that are both bound by CRP with higher affinity and that cross-link it in more avid stable complexes, may cause accelerated clearance from the plasma in vivo.
In general terms: In ITC the heat of successive injections is recorded.

The next assay has as its target T2, mouse SAP (Mus musculus, UniProt P12246).
T2 construct: host or cells: mice, endogenous circulating SAP
T2 sequence (P12246 21-224): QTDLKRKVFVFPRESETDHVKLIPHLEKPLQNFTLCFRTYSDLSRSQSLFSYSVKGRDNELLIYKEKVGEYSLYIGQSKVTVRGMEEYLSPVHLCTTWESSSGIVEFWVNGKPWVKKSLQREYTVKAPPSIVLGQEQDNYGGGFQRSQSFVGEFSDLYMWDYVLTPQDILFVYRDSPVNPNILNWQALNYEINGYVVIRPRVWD
As to conditions: CPHPC administered to mice; cited from earlier work.

Assay [2] concerns the target T1, SAP. More on the design: human SAP expressed in human SAP transgenic mice; host or cells: human SAP transgenic mice; circulation in vivo. As to conditions: cited from earlier work.
Assay [3] concerns the target T3, CRP (Homo sapiens, UniProt P02741).
T3 sequence (P02741 19-224): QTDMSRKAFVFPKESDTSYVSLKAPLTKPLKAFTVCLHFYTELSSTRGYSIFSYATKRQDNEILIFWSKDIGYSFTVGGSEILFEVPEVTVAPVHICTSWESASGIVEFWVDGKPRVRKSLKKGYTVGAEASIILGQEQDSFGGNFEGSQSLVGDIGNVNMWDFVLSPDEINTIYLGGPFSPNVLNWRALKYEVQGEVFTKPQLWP
Nature of the assay: Gel filtration (molecular sieve) chromatography of CRP molecular assembly. The assay is classed as binding. Particulars: 10 fold molar excess of drug. The text has this: The ligand binding sites on each of the 5 protomers in the CRP molecule are all on the same face of the disc-like pentameric assembly of the native protein.
(In general: Size exclusion chromatography separates by hydrodynamic size, large species first.)

Assay [4] deals with T3, CRP.
From the text: The Roche MIRA automated immunoassay for CRP (64) depends on recognition by a monoclonal antibody of a calcium-dependent epitope on the CRP molecule.

Read-outs that look alike come from different tables or passages of the source.

T1 sequence (P02743 20-223): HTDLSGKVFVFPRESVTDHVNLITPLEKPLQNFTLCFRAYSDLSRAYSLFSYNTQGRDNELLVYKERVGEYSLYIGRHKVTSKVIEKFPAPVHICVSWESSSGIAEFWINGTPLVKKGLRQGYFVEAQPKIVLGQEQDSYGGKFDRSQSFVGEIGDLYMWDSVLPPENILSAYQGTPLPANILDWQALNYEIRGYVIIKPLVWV

With `O=C(O)[C@H]1CCCN1C(=O)CCCCC(=O)N1CCC[C@@H]1C(=O)O` [CPHPC, (R)-1-[6-[(R)-2-Carboxy-pyrrolidin-1-yl]-6-oxo-hexanoyl]pyrrolidine-2-carboxylic acid], the Kd on SAP [1] stood at 0.01 µM. For the same compound, the “effect on clearance of mouse SAP in vivo” value on mouse SAP was “does not accelerate clearance”. Moreover, the “effect on human SAP in vivo” value on SAP [2] (human SAP transgenic mice) is “dramatically clears”. In addition, the “clearance of SAP-CPHPC complexes from the circulation in vivo” value at SAP [2] (pairs of SAP molecules cross linked by CPHPC) is given as “very rapidly cleared”.

As for `C[N+](C)(C)CCOP(=O)([O-])O` [phosphocholine], the “Molecular assembly of CRP” value on CRP [3] is reported as “Single pentamers”.

As to D-Pro-hexanoyl-phosphocholine [DPHPC], the “reduction of MIRA CRP concentration” value stood at 58% on CRP [4] (CRP 100 mg/l, SAP 100 mg/l (~4 μM), DPHPC 400 μM); 89% at CRP [4] (CRP 100 mg/l, SAP 100 mg/l (~4 μM), DPHPC 2 mM); 99% at CRP [4] (CRP 100 mg/l, SAP 100 mg/l (~4 μM), DPHPC 4 mM); 62% at CRP [4] (second experiment: ~4 μM CRP, 1 mM DPHPC, no SAP). At CRP [4] (added to isolated pure CRP, no SAP), the “effect on apparent CRP concentration in MIRA assay” value is reported as “slightly reduces”. The “reduction of MIRA CRP value” is “no effect” at CRP [4] (pure CRP 100 mg/l (~4 μM), DPHPC 400 μM, no SAP); 91% on CRP [4] (pure CRP 100 mg/l (~4 μM), DPHPC 4 mM, no SAP); 61% on CRP [4] (second experiment: ~4 μM CRP, 1 mM DPHPC, SAP 400 nM); 61% on CRP [4] (second experiment: ~4 μM CRP, 1 mM DPHPC, SAP 800 nM); 73% at CRP [4] (second experiment: ~4 μM CRP, 1 mM DPHPC, SAP 2 μM); 85% on CRP [4] (second experiment: ~4 μM CRP, 1 mM DPHPC, SAP about 4 μM). For the same compound, the “reduction of MIRA CRP value” on CRP [4] (whole serum, SAP and CRP both ~4 μM, 4 mM DPHPC) is given as 44%; at CRP [4] (whole serum, ~4 μM CRP, 2 μM SAP, 4 mM DPHPC) it was 29%. The “enhancement by SAP of the effect of DPHPC alone in MIRA” value at CRP [4] (whole serum, SAP concentrations lower than 2 μM, 4 mM DPHPC) was “no enhancement”. Also, the “reduction of CRP detectable in MIRA assay” value at CRP [4] (whole serum, ~4 μM CRP, 4 mM DPHPC, no added SAP) is recorded as 19%.
